From patent EP4678638A1, “NEW E3 UBIQUITIN LIGASE LIGAND, PROTEIN DEGRADATION AGENT AND USE THEREOF” (priority 2023, dated 2024)

Legend:
IRAK4 = target: T1, IRAK4 (Homo sapiens, UniProt Q9NWZ3); assay: Western blot degradation of IRAK4 (hPBMC); format: cell-based; conditions: Table D1
T1 construct: evaluate the effects of the compounds of the present disclosure on the expression of target proteins in cells; endogenous in cells; host or cells: hPBMC
T1 sequence (Q9NWZ3 1-460): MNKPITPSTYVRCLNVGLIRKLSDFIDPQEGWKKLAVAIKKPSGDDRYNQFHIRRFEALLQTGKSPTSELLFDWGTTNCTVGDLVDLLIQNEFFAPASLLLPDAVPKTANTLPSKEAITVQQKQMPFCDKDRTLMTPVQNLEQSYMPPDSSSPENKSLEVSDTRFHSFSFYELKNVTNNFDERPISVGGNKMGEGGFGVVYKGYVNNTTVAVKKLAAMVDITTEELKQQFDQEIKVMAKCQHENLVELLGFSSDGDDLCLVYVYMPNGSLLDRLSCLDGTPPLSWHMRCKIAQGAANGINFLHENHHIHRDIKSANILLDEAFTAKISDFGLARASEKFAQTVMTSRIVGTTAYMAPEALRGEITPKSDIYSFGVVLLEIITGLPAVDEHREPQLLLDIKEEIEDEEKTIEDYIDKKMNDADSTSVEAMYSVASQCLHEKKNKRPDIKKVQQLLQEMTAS
Procedure: Conventional Western blot assay was performed to evaluate the effects of the compounds of the present disclosure on the expression of target proteins in cells.
(1) Cell Seeding and Protein Harvesting: The selected cells were processed according to the cell seeding procedure and protein harvesting procedure in Table III-2. Table III-2 Cell Seeding and Protein Harvesting Procedures
(2) To the collected supernatant, 5X SDS sample loading buffer was added, followed by denaturation at 95°C for 5 minutes. The denatured samples were then separated by SDS-PAGE electrophoresis on a polyacrylamide gel. Proteins were transferred to a nitrocellulose membrane (0.45 µm NC membrane), blocked with blocking buffer at room temperature for 1 hour, and subjected to antibody incubation and development procedures according to the antibody manufacturer's instructions (Cell Signaling Technology).
Half-Maximal Degradation Concentration value (the drug concentration required for degrading proteins by 50%, abbreviated as DC50) reads method: comparing the grayscale values of Western blot bands from drug-treated samples with those from blank DMSO-treated controls, and identifying the drug concentration range at which the grayscale value is half that of the DMSO-treated control bands.
DC50 values can be calculated using ImageJ software to measure grayscale values of Western blot bands from drug-treated samples. The concentration-response curve is fitted to estimate the drug concentration corresponding to half the grayscale value.
Target protein remaining (%) refers to the percentage of target protein remaining in hPBMC cells after treatment with protein degrader compounds.
Calculation method for target protein remaining (%): Use ImageJ software to measure grayscale values of Western blot bands from drug (protein degrader)-treated samples. The grayscale value of drug-treated bands is divided by that of internal control protein bands, and the resulting quotient is normalized to obtain the relative percentage of remaining target protein after protein degrader treatment.
Target protein degradation rate (%) = 100% - target protein remaining (%).

H1975 = assay: CCK-8 proliferation, NCI-H1975 (H1975); format: cell-based, Human; conditions: Homo sapiens, NCI-H1975; CCK-8; 96 hours; read-out: Inhibitory activity (IC50) on tumor cell proliferation, H1975
How it was run: (§1)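 Cells seeded, then after 24 h treated with 10 concentrations (top 10 µM, 5-fold serial dilution) for a line-specific time at 37°C, 5% CO2. Viability read by CCK-8; IC50 fitted from growth-inhibition curves.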

MCF7 = assay: CCK-8 proliferation, MCF7 (MCF-7); format: cell-based; conditions: Homo sapiens, MCF7; CCK-8; read-out: Inhibitory activity (IC50) on tumor cell proliferation, MCF7
How it was run: as §1

CCRF-CEM = assay: CCK-8 proliferation, CCRF-CEM; format: cell-based, Human; conditions: Homo sapiens, CCRF-CEM; CCK-8; 96 hours; read-out: Inhibitory activity (IC50) on tumor cell proliferation, CCRF-CEM
Procedure: (§2) The tumor cells used herein were cultured in a cell culture medium listed in table A1 at 37°C in an incubator with 5% CO2. Prior to experimentation, all cell lines used were correctly identified by STR profiling, and tested negative for mycoplasma contamination using a mycoplasma detection kit through routine screenings. Table A1. Tumor cells and cell culture medium used in the present disclosure
(§3) IC50 values of the compounds of the present disclosure (including the compounds in Table 1, and compounds of examples) were measured using the Meilun Cell Counting Kit-8 kit from Dalian Meilun Biotech Co., Ltd. Assay details are as follows: tumor cells were seeded in a 96-well plate at a density listed in Table A2. After 24h, 100 µL of the inoculated cells were treated with 0.5µL of the compounds of the present disclosure (including the compounds in Tables 1 and 2, and compounds of examples) at 10 different successively decreasing concentrations (starting at the highest concentration of 10µM; 5-fold serial dilutions). After the cells were treated with the compounds of the present disclosure for a period of time, the cell viability detection reagent was added to the culture medium for cell viability assessment according to the instructions provided with the CCK-8 kit. […] The growth inhibition of the compounds of the present disclosure on cells was plotted by Prism Graphpad software, and the IC50 values of the compounds of the present disclosure were calculated therefrom. […] Seeding protocol and treatment time for tumor cells

MM.1S = assay: CCK-8 proliferation, MM.1S; format: cell-based; conditions: Homo sapiens, MM1.S; CCK-8; 72 hours; read-out: Inhibitory activity (IC50) on tumor cell proliferation, MM1S
Procedure: as §2, §3

[1] = target: T2, human Cereblon WT GST-tagged protein (Homo sapiens, UniProt Q96SW2); assay: CRBN binding, HTRF (CEREBLON BINDING kit); conditions: Table II-2, CRBN binding screening, HTRF
T2 construct: purchased CISBIO 64BDCRBNPEH
How it was run: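 After 3 h at room temperature, emission at 665 and 620 nm was measured in a homogeneous time-resolved fluorescence format. Compounds competed with a Thalidomide-Re probe for GST-tagged wild-type human CRBN, which was labelled with a Eu anti-GST antibody.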

EGFR = assay: Western blot degradation of EGFR (H1975 Cell); format: cell-based, Human; conditions: Table D2
How it was run: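 Quantification by ImageJ densitometry of Western blot bands: DC50 is the fitted concentration halving band intensity relative to DMSO. Percent remaining uses internal-control normalization, and degradation rate is its complement.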

T2 sequence (Q96SW2 whole entry): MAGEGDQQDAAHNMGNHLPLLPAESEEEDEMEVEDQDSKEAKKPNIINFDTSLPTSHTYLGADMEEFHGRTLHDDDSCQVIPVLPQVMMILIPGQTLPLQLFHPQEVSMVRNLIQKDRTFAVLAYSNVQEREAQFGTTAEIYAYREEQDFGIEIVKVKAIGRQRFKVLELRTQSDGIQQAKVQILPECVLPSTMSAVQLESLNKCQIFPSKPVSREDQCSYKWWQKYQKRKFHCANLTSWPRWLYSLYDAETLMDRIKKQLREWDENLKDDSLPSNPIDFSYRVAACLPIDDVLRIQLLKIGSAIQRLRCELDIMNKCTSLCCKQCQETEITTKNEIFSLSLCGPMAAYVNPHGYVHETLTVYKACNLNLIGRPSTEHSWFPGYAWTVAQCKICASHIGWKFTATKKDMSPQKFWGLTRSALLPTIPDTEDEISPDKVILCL

| SMILES | IC50 (H1975) | Degradation of substrate protein IRAK4 (substrate protein remaining %) (IRAK4) | Degradation of substrate protein EGFR (substrate protein remaining %) (EGFR) | further results |
| --- | --- | --- | --- | --- |
| COc1cc2nn(C3CCN(Cc4ccnc(N5CCC(=O)NC5=O)c4)CC3)cc2cc1NC(=O)c1cccc(C(F)(F)F)n1 [GT-07532, N-(2-(1-((2-(2,4-dioxotetrahydropyrimidin-1(2H)-yl)pyridin-4-yl)methyl)piperidin-4-yl)-6-methoxy-2H-indazol-5-yl)-6-(trifluoromethyl)picolinamide] |  | A (A is defined as 0% ≤ substrate protein remaining % ≤ 80%) |  |  |
| CC(C)(O)c1cc2nc(C3CCN(Cc4ccnc(C5CCC(=O)NC5=O)c4)CC3)sc2cc1NC(=O)c1cccc(C(F)(F)F)n1 (centres unmarked) [GT-07622, N-(2-(1-((2-(2,6-dioxopiperidin-3-yl)pyridin-4-yl)methyl)piperidin-4-yl)-5-(2-hydroxypropan-2-yl)benzo[d]thiazol-6-yl)-6-(trifluoromethyl)picolinamide] |  | A (A is defined as 0% ≤ substrate protein remaining % ≤ 80%) |  |  |
| CC(C)(O)c1cc2nc(C3CCN(Cc4cccnc4C4CCC(=O)NC4=O)CC3)oc2cc1NC(=O)c1cccc(C(F)(F)F)n1 (centres unmarked) [GT-07631, N-(2-(1-((2-(2,6-dioxopiperidin-3-yl)pyridin-3-yl)methyl)piperidin-4-yl)-5-(2-hydroxypropan-2-yl)benzo[d]oxazol-6-yl)-6-(trifluoromethyl)picolinamide] |  | A (A is defined as 0% ≤ substrate protein remaining % ≤ 80%) |  |  |
| O=C1CCC(Nc2cccc(CN3CCN(c4ccc5c(c4)nc(NC(=O)c4cccc(C(F)(F)F)c4)n5[C@H]4CC[C@@H](CO)CC4)CC3)c2)C(=O)N1 (some centres unmarked) [GT-04985, N-(5-(4-(3-((2,6-dioxopiperidin-3-yl)amino)benzyl)piperazin-1-yl)-1-((1s,4s)-4-(hydroxymethyl)cyclohexyl) -1H-benzo[d]imidazol-2-yl)-3-(trifluoromethyl)benzamide] |  | A (A is defined as 0% ≤ substrate protein remaining % ≤ 80%) |  |  |
| Cc1nc2c(F)cc(-c3nc(Nc4ccc(N5CCC(N6CCN(Cc7cncc(N8CCC(=O)NC8=O)c7)CC6)CC5)cn4)ncc3F)cc2n1C(C)C [GT-07488, 1-(5-((4-(1-(6-((5-fluoro-4-(4-fluoro-1-isopropyl-2-methyl-1H-benzo[d]imidazol-6-yl)pyrimidin-2-yl)amino)pyridin-3-yl)piperidin-4-yl)piperazin-1-yl)methyl)pyridin-3-yl)dihydropyrimidine-2,4(1H,3H)-dione] | 100 to 500 nM |  |  | IC50 (MCF7): 50 to 100 nM; IC50 (CCRF-CEM): 100 to 500 nM; IC50 (MM.1S): 50 to 100 nM; inhibition at 0.5 µM ([1]; at 0.5µM, read-out: Inhibition rate (%) at 0.5µM): 53 to 60%; inhibition at 2 µM ([1]; at 2 µM, read-out: Inhibition rate (%) at 2 µM): 80 to 100% |
| O=C1CCN(c2cccc(CN3CCN(C4CCN(c5ccc(-c6cc(F)c7c(c6)C(=O)N(C(C(=O)Nc6nccs6)c6ncn8c6CCC8)C7)cc5)CC4)CC3)c2)C(=O)N1 (centres unmarked) [GT-06245, 2-(6,7-dihydro-5H-pyrrolo[1,2-c]imidazol-1-yl)-2-(6-(4-(4-(4-(3-(2,4-dioxotetrahydropyrimidin-1(2H)-yl)benzyl)piperazin-1-yl)piperidin-1-yl)phenyl)-4-fluoro-1-oxoisoindolin-2-yl)-N-(thiazol-2-yl)acetamide] | 1 to 10 nM |  | A (A is defined as 0% ≤ substrate protein remaining % ≤ 80%) |  |

More lines, main results first:

| IC50 (H1975) | SMILES | Degradation of substrate protein IRAK4 (substrate protein remaining %) (IRAK4) | Degradation of substrate protein EGFR (substrate protein remaining %) (EGFR) | further results |
| --- | --- | --- | --- | --- |
| 10 to 50 nM | O=C1CCN(c2ccc(CN3C[C@@H]4C[C@H]3CN4c3ccc(-c4cc(F)c5c(c4)C(=O)N(C(C(=O)Nc4nccs4)c4ncn6c4CCC6)C5)cc3)cc2)C(=O)N1 (stereo partly drawn) [GT-05116, 2-(6,7-dihydro-5H-pyrrolo[1,2-c]imidazol-1-yl)-2-(6-(4-((1S,4S)-5-(4-(2,4-dioxotetrahydropyrimidin-1(2H)-yl)benzyl)-2,5-diazabicyclo[2.2.1]heptan-2-yl)phenyl)-4-fluoro-1-oxoisoindolin-2-yl)-N-(thiazol-2-yl)acetamide] |  | A (A is defined as 0% ≤ substrate protein remaining % ≤ 80%) |  |
| 1 to 10 nM | O=C1CCC(c2cncc(CN3C[C@H]4C[C@@H]3CN4c3ccc(-c4cc(F)c5c(c4)C(=O)N(C(C(=O)Nc4nccs4)c4ncn6c4CCC6)C5)cc3)c2)C(=O)N1 (stereo partly drawn) [GT-07391, 2-(6,7-dihydro-5H-pyrrolo[1,2-c]imidazol-1-yl)-2-(6-(4-((1R,4R)-5-((5-(2,6-dioxopiperidin-3-yl)pyridin-3-yl)methyl)-2,5-diazabicyclo[2.2.1]heptan-2-yl)phenyl)-4-fluoro-1-oxoisoindolin-2-yl)-N-(thiazol-2-yl)acetamide] |  | A (A is defined as 0% ≤ substrate protein remaining % ≤ 80%) |  |
| 1 to 10 nM | O=C1CCC(c2ccc(CN3C[C@H]4C[C@@H]3CN4c3ccc(-c4cc(F)c5c(c4)C(=O)N(C(C(=O)Nc4nccs4)c4ncn6c4CCC6)C5)cc3)nc2)C(=O)N1 (stereo partly drawn) [GT-07389, 2-(6,7-dihydro-5H-pyrrolo[1,2-c]imidazol-1-yl)-2-(6-(4-((1R,4R)-5-((5-(2,6-dioxopiperidin-3-yl)pyridin-2-yl)methyl)-2,5-diazabicyclo[2.2.1]heptan-2-yl)phenyl)-4-fluoro-1-oxoisoindolin-2-yl)-N-(thiazol-2-yl)acetamide] |  | A (A is defined as 0% ≤ substrate protein remaining % ≤ 80%) |  |
| 1 to 10 nM | O=C1CCN(c2cccc(CN3C[C@H]4C[C@@H]3CN4c3ccc(-c4cc(F)c5c(c4)C(=O)N(C(C(=O)Nc4nccs4)c4ncn6c4CCC6)C5)cc3)c2)C(=O)N1 (stereo partly drawn) [GT-06178, 2-(6,7-dihydro-5H-pyrrolo[1,2-c]imidazol-1-yl)-2-(6-(4-((1R,4R)-5-(3-(2,4-dioxotetrahydropyrimidin-1(2H)-yl)benzyl)-2,5-diazabicyclo[2.2.1]heptan-2-yl)phenyl)-4-fluoro-1-oxoisoindolin-2-yl)-N-(thiazol-2-yl)acetamide] |  | A (A is defined as 0% ≤ substrate protein remaining % ≤ 80%) |  |
